Reference: patent publication US9358252B2, “Polysaccharide compositions and methods of use for the treatment and prevention of disorders associated with progenitor cell mobilization” (MOMENTA PHARMACEUTICALS, INC., priority 2007, dated 2016)

Legend:
[1] = test system: endothelial progenitor cells (EPC); assay: EPC mobilization in normal mice, single MONC402 dose; assay type: in vivo; settings: G-CSF 200 μg/kg 3 days; docetaxel i.p. 40 mg/kg; cisplatin i.p. 6 mg/kg; 24 h
Experimental: In one experiment, normal mice were treated with G-CSF (s.c., 3 consecutive days), docetaxel or cisplatin (one i.p. dose) with or without simultaneous MONC402 treatment (one s.c. dose). EPC mobilization was monitored 24 h later. Mice (8 mice/group) were dosed s.c. with Saline or MONC402 (40 mg/kg) (or DC101 at 40 mg/kg for control with docetaxel). About 30 min later, mice were given docetaxel (i.p., 40 mg/kg), cisplatin (i.p., 6 mg/kg), or saline control. As a positive control, 2 groups of mice were also dosed with G-CSF […]. (200 μg/kg) for 3 days, either alone or in combination with a single dose of MONC402 (s.c. at 40 mg/kg) on the last day. 24 h later, the mice were euthanized, and 0.5-0.8 mL of blood taken by cardiac puncture:
About 300 μL of whole blood was transferred directly into 14 mL of lysis buffer for flow cytometry of EPC. The remaining 300-600 μL were processed for serum (SDF-1α). For flow cytometry, lysed cells were washed and blocked, then stained with CD13-FITC, CD117-PE, 7-AAD, VEGFR2-APC, and CD45-PE/Cy7. A total of 50,000 cells were acquired per sample in the PBMNC gate.

4T1 cells [2] = assay: Second 4T1 experiment, osmotic pump delivery; assay type: in vivo, BALB/c mice; settings: MONC402 20 mg/kg/day osmotic pump; Cisplatin 1.25 mg/kg weekly; day 32
Experimental: FIG. 2 is a bar graph showing the effect of a polysaccharide preparation described herein in a 4T1 therapeutic model of breast cancer metastasis to the lung. Lung tumor burden (lung weight-normal lung weight) was determined on day 32 for female BALB/c mice (8 weeks old) challenged with intra-mammary fat pad injection of 8×10^4 4T1 cells and treated as indicated starting on day 4. In a second 4T1 experiment, female BALB/c mice 8 WOA were injected with 8×10^4 4T1 cells intra mammary fat pad. Continuous osmotic pump delivery of saline or MONC 402 with weekly treatment of saline or Cisplatin started on day 4. Primary tumors were removed on day 9. […] The experiment terminated on day 32 and different samples were taken. 6 mice were either found dead or were terminated early due to worsened overall condition. 4T1 lung metastases were determined by lung weight, lung tumor nodule quantification including nodule number, size and calculated tumor volume, as well as histological quantification.

4T1 cells [3] = assay: 4T1 breast cancer metastasis to the lung model, daily treatment; assay type: in vivo, BALB/c mice; settings: Cisplatin weekly from day 5
Experimental: Female BALB/c mice 8 weeks of age (WOA) were injected with 8×10^4 4T1 cell intra mammary fat pad. Daily treatment with saline or MONC402 with or without weekly treatment of cisplatin started on day 5. Primary tumors were removed on day 9 and weighed.

[4] = test system: C170HM2 human colorectal tumor cells; assay: C170HM2 colon cancer metastasis to the liver model; assay type: in vivo, MF1 nude (nu/nu) athymic mice; settings: 25 mg/kg i.v. cycled on days 1, 3, 5, 7; liver tumors day 35
Experimental: Liver metastasis was initiated by intraperitoneal injection of C170HM2 human colorectal tumor cells into male MF1 nude (nu/nu) athymic mice. 5FU/leucovorin was used as a positive control.
C170HM2 cells were maintained in vitro in RPMI culture medium (Sigma) containing 10% (v/v) heat inactivated fetal bovine serum and 2 mM L-glutamine at 37° C. in 5% CO2 and humidified conditions. Cells from sub-confluent monolayers were harvested with 0.025% EDTA, washed in culture medium and re-suspended in sterile phosphate buffered saline, pH 7.4 (PBS) for in vivo administration. 1.5×10^6 cells in a volume of 1 ml were injected intraperitoneally into 65 mice, and the mice were allocated into treatment groups as below.
Treatment was initiated on day 1 following cell injection and continued until day 35 or until the clinical condition of the animal required termination. Groups 5 and 6 missed one dose on day 5. No adverse affects of the test compounds in mice bearing the tumors were observed.
The study was terminated on day 35, and the tumors in the liver were excised and weighed. The numbers of lung nodules are also counted.

[5] = test system: endothelial progenitor cells (EPC); assay: EPC mobilization in mice, second experiment (daily MONC402 with G-CSF); assay type: in vivo; settings: G-CSF 200 μg/kg s.c. 5 consecutive days; docetaxel i.p. 40 mg/kg
Experimental: In a second experiment, it was tested if daily dosing for 5 days with MONC402 would generate a stronger inhibitory effect on EPC mobilization caused by treatment with a taxane.
Mice (10 mice/group) were dosed s.c. with Saline or MONC402 (40 mg/kg), or DC101 (40 mg/kg, as a positive inhibition control with docetaxel). About 30 min later, mice were given docetaxel (i.p., 40 mg/kg) or saline control. As a positive control, 2 groups of mice were also dosed with G-CSF (200 μg/kg) s.c. for 5 consecutive days±daily MONC402. 24 h later, the mice were euthanized, and 500-800 μL of blood taken by cardiac puncture. 150 μL were transferred into 5 mL of lysis buffer for flow cytometric analysis of EPC. The remaining 350-500 μL were processed for serum (SDF-1α). For flow cytometry, cells were washed and blocked and then stained with CD13-FITC, CD117-PE, 7-AAD, VEGFR2-APC, and CD45-PE/Cy7. A total of 50,000 cells were acquired per sample in the PBMNC gate.

[6] = test system: endothelial progenitor cells (EPC); assay: Docetaxel induced EPC mobilization in 4T1 tumor bearing mice, MONC402 via osmotic pump; assay type: in vivo; settings: Docetaxel 40 mg/kg i.p. Day 6; MONC402 osmotic pump 40 mg/kg/day monotherapy
Experimental: A third experiment was conducted to evaluate the effect of MONC402 on EPC mobilization in response to treatment with docetaxel in 4T1 tumor bearing mice.
4T1 tumors were implanted on Day 0 at 1×10^5 cells/mouse into the 4th mammary fat pad. Pumps with Saline or MONC402 were implanted on Day 0, immediately after tumor cell injections. Mice were randomized to the following groups: • 1. Saline Control, n=8 • 2. Docetaxel, 40 mg/kg, Day 6, n=8 • 3. M402, pump, 40 mg/kg/day, Day 0, n=8 • 4. Docetaxel, 40 mg/kg, Day 6+M402, pump, 40 mg/kg/day, Day 0, n=8
Docetaxel or Saline was administered i.p. on Day 6 in the AM. Four h later, mice were bled by submandibular plexus for EPC profiling and soluble factor analysis. Primary tumors were removed on Day 9 for histological analyses. Blood was also collected for soluble factor analyses (72 h after docetaxel dosing). Serum samples were analyzed using a 19-plex Luminex kit. In addition, samples were also tested for SDF-1α levels by ELISA.

In the case of `N.N.[Cl][Pt][Cl]` [Cisplatin, cisplatin], the “EPC mobilization compared to Saline control” value [1] is reported as “did not show this effect”, the 4T1 lung metastasis (4T1 cells [2]) is reported as “significant anti-tumor efficacy” and the “Average lung tumor size” value (4T1 cells [3]) is reported as 1.41. The Average tumor size (4T1 cells [3]) was 1.36, the “Lung tumor nodule #/animal” value (4T1 cells [3]) was 5.6 ± 4.4 and the Total tumor nodule (4T1 cells [3]) was 89. The Total tumor volume (4T1 cells [3]) was 134.13.

5FU/leucovorin was tested, and the “Mean tumor area (% of vehicle)” value [4] was 15.7 % of vehicle, the “Mean tumor area (mm^2)” value [4] was 13.12 mm^2 and the “Mean tumor weight” value [4] was 0.037 g. The “Mean tumor weight (% of vehicle)” value [4] was 11.94 % of vehicle.

For `CC(=O)O[C@@]12CO[C@@H]1C[C@H](O)[C@@]1(C)C(=O)[C@H](O)C3=C(C)[C@@H](OC(=O)[C@H](O)[C@@H](NC(=O)OC(C)(C)C)c4ccccc4)C[C@@](O)([C@@H](OC(=O)c4ccccc4)[C@H]21)C3(C)C` [Docetaxel, docetaxel], the EPC mobilization [5] was “significant increase”, the “EPC mobilization compared to Saline control” value [1] was “significant increase” and the “EPC in the blood at 4 h” value [6] was “significant increase”.

B1: granulocyte colony stimulating factor (protein, UniProt P09919 31-207, looked up)
Granulocyte …: TPLGPASSLPQSFLLKCLEQVRKIQGDGAALQEKLVSECATYKLCHPEELVLLGHSLGIPWAPLSSCPSQALQLAGCLSQLHSGLFLYQGLLQALEGISPELGPTLDTLQLDVADFATTIWQQMEELGMAPALQPTQGAMPAFASAFQRRAGGVLVASHLQSFLEVSYRVLRHLAQP
notes: growth factor used as positive control for EPC and MDSC mobilization
B1 was tested, and the EPC mobilization [5] was “significant increase” and the “EPC mobilization compared to Saline control” value [1] was “significant increase”.
